In US9765087B2, “Benzimidazole derivatives” (ENANTA PHARMACEUTICALS, INC., priority 2009, dated 2017):
pEC50: −log10 of the molar value.

These compounds were tested on HCV 1b genotype replicon (assay: HCV replicon assay (qRT-PCR or luciferase), genotype 1b). Conditions: Hepatitis C virus, Table 11, qRT-PCR or luciferase assay, read-out: Genotype-1b replicon EC50 Range.
Format: cell-based
Text: HCV replicon cell lines (kindly provided by R. Bartenschlager) isolated from colonies as described by Lohman et. al. (Lohman et al. (1999) Science 285: 110-113, expressly incorporated by reference in its entirety) and used for all experiments. The HCV replicon has the nucleic acid sequence set forth in EMBL Accession No.: AJ242651, the coding sequence of which is from nucleotides 1801 to 8406.
The coding sequence of the published HCV replicon was synthesized and subsequently assembled in a modified plasmid pBR322 (Promega, Madison, Wis.) using standard molecular biology techniques. One replicon cell line (“SGR 11-7”) stably expresses HCV replicon RNA which consists of (i) the HCV 5′UTR fused to the first 12 amino acids of the capsid protein, (ii) the neomycin phosphotransferase gene (neo), (iii) the IRES from encephalomyocarditis virus (EMCV), and (iv) HCV […] to NSSB genes and the HCV 3′UTR. Another replicon cell line (“Huh-luc/neo-ET”) described by Vrolijk et. al. (Vrolijk et. al. (2003) Journal of Virological Methods 110:201-209, expressly incorporated by reference in its entirety) stably expresses HCV replicon RNA which consists of (i) the HCV 5′UTR fused to the first 12 amino acids of the capsid protein, (ii) the firefly luciferase reporter gene, (iii) the ubiquitin gene, (iv) the neomycin phosphotransferase gene (neo), (v) the IRES from encephalomyocarditis virus (EMCV), and (vi) HCV NS3 to NS5B genes that harbor cell culture adaptive mutations (E1202G, T1280I, K1846T) and the HCV 3′UTR.
These cell lines were maintained at 37° C., 5% CO2, 100% relative humidity in DMEM (Cat#11965-084, Invitrogen), with 10% fetal calf serum (“FCS”, Invitrogen), 1% non-essential amino acids (Invitrogen), 1% of Glutamax (Invitrogen), 1% of 100× penicillin/streptomycin (Cat#15140-122, Invitrogen) and Geneticin (Cat#10131-027, Invitrogen) at 0.75 mg/ml or 0.5 mg/ml for 11-7 and Huh-luc/neo-ET cells, respectively.
EC50 values of single agent compounds and combinations were determined by HCV RNA detection using quantitative RT-PCR, according to the manufacturer's instructions, with a TAQMAN® One-Step RT-PCR Master Mix Reagents Kit (Cat#AB 4309169, Applied Biosystems) on an ABI Model 7500 thermocycler. The TaqMan primers used for detecting and quantifying HCV RNA were obtained from Integrated DNA Technologies. HCV RNA was normalized to GAPDH RNA levels in drug-treated cells, which is detected and quantified using the Human GAPDH Endogenous Control Mix (Applied Biosystems, AB 4310884E). Total cellular RNA is purified from 96-well plates using the RNAqueous 96 kit (Ambion, Cat# AM1812). Chemical agent cytotoxicity is evaluated using an MTS assay according to the manufacturer's directions (Promega).
Since clinical drug resistance often develops in viral infections following single agent therapies, there is a need to assess the additive, antagonistic, or synergistic properties of combination therapies. We used the HCV replicon system to assess the potential use of the compound of the present invention or in combination therapies with Interferon alpha, cyclosporine analogs and inhibitors targeting other HCV proteins. The acute effects of a single or combinations of drugs are studied in the “Huh-luc/neo-ET” replicon with each chemical agent titrated in an X or Y direction in a 6 point two-fold dilution curve centered around the EC50 of each drug. Briefly, replicon cells are seeded at 7,000 cells per well in 90 ul DMEM (without phenol red, Invitrogen Cat.#31053-036) per well with 10% FCS, 1% non-essential amino acids, 1% of Glutamax and 1% of 100× penicillin/streptomycin and incubated overnight at 37° C., 5% CO2, 100% relative humidity. […]

| SMILES | pEC50 |
| --- | --- |
| COC(=O)N[C@H](C(=O)N1CCC[C@H]1c1ncc(-c2ccc(CCCc3ccc4[nH]c([C@@H]5CCCN5C(=O)[C@@H](NC(=O)OC)C(C)C)nc4c3)cc2)[nH]1)C(C)C [Example 449] | > 9.00 |
| COC(=O)N[C@H](C(=O)N1CCC[C@H]1c1ncc(-c2ccc(C#Cc3ccc4nc([C@]5(C)CCCN5C(=O)[C@@H](NC(=O)OC)C(C)C)[nH]c4c3)cc2)[nH]1)C(C)C [Example 539] | > 9.00 |
| COC(=O)N[C@H](C(=O)N1CCC[C@H]1c1nc(-c2ccc(C#Cc3cc(F)c4[nH]c([C@@H]5CCCN5C(=O)[C@@H](NC(=O)OC)C(C)C)nc4c3)cc2)c[nH]1)C(C)C [Example 483] | > 9.00 |
| COC(=O)N[C@H](C(=O)N1CCC[C@H]1c1ncc(-c2ccc([C@@H]3C[C@H]3c3ccc4nc([C@@H]5CCCN5C(=O)[C@@H](NC(=O)OC)C(C)C)[nH]c4c3)cc2)[nH]1)C(C)C [Example 497-b] | > 9.00 |
| COC(=O)N[C@H](C(=O)N1CCC[C@H]1c1nc(-c2ccc(C#Cc3cc4nc([C@@H]5CCCN5C(=O)[C@@H](NC(=O)OC)C(C)C)[nH]c4cc3Cl)cc2)c[nH]1)C(C)C [Example 485] | > 9.00 |
| COC(=O)N[C@H](C(=O)N1CCC[C@H]1c1nc2cc(-c3ccc4cc(-c5c[nH]c([C@@H]6CCCN6C(=O)[C@@H](NC(=O)OC)[C@@H](C)OC)n5)ccc4c3)ccc2[nH]1)[C@@H](C)O [Example 465] | > 9.00 |
| COC(=O)N[C@H](C(=O)N1CCC[C@H]1c1nc(C#Cc2ccc3cc(-c4ccc5[nH]c([C@@H]6CCCN6C(=O)[C@@H](NC(=O)OC)C(C)C)nc5c4)ccc3c2)c[nH]1)C(C)C [Example 471] | > 9.00 |
| COC(=O)N[C@H](C(=O)N1CCC[C@H]1c1nc(-c2ccc(CCc3ccc4[nH]c([C@@H]5CCCN5C(=O)[C@@H](NC(=O)OC)C(C)C)nc4c3)cc2)c[nH]1)C(C)C [Example 494] | > 9.00 |
| [2H]c1c([2H])c(-c2c[nH]c([C@@H]3CCCN3C(=O)[C@@H](NC(=O)OC)C(C)C)n2)c([2H])c([2H])c1C#Cc1ccc2[nH]c([C@@H]3CCCN3C(=O)[C@@H](NC(=O)OC)C(C)C)nc2c1 [Example 488] | > 9.00 |
| CCC[C@H](NC(=O)OC)C(=O)N1CCC[C@H]1c1nc2cc(C#Cc3ccc(-c4c[nH]c([C@@H]5CCCN5C(=O)[C@@H](NC(=O)OC)C(C)C)n4)cc3)ccc2[nH]1 [Example 503] | > 9.00 |
| COC(=O)N[C@H](C(=O)N1CCC[C@H]1c1ncc(-c2ccc(C#Cc3ccc4nc([C@@H]5CCCN5C(=O)[C@@H](NC(=O)OC)[C@H](C)O)[nH]c4c3)cc2)[nH]1)C(C)C [Example 531] | > 9.00 |
| COC(=O)N[C@H](C(=O)N1CCC[C@H]1c1ncc(-c2ccc(C#Cc3ccc4nc([C@@H]5CCCN5C(=O)[C@@H](NC(=O)OC)C(C)(C)C)[nH]c4c3)cc2)[nH]1)C(C)C [Example 529] | > 9.00 |
| COC(=O)N[C@H](C(=O)N1CCC[C@H]1c1nc2cc(C#Cc3ccc(-c4c[nH]c([C@@H]5CCCN5C(=O)[C@H](NC(=O)OC)C(C)C)n4)cc3)ccc2[nH]1)C(C)C [Example 513] | > 9.00 |
| COC(=O)N[C@H](C(=O)N1CCC[C@H]1c1ncc(-c2ccc(C#Cc3ccc4nc([C@@H]5CCCN5C(=O)[C@@H](NC(=O)OC)C5CC5)[nH]c4c3)cc2)[nH]1)C(C)C [Example 528] | > 9.00 |
| COC(=O)N[C@H](C(=O)N1CCC[C@H]1c1ncc(-c2ccc(C#Cc3ccc4nc([C@@H]5CCCN5C(=O)[C@@H](NC(=O)OC)C(C)(C)O)[nH]c4c3)cc2)[nH]1)C(C)C [Example 530] | > 9.00 |
| CC[C@H](C)[C@H](NC(=O)OC)C(=O)N1CCC[C@H]1c1ncc(-c2ccc(C#Cc3ccc4nc([C@@H]5CCCN5C(=O)[C@@H](NC(=O)OC)[C@@H](C)CC)[nH]c4c3)cc2)[nH]1 [Example 526] | > 9.00 |
| COC(=O)N[C@H](C(=O)N1CCC[C@H]1c1nc2cc(C#Cc3ccc(-c4c[nH]c([C@@H]5CCCN5C(=O)[C@@H](NC(C)=O)C(C)C)n4)cc3)ccc2[nH]1)C(C)C [Example 511] | > 9.00 |
| COC(=O)N[C@H](C(=O)N1CCC[C@H]1c1nc(-c2ccc(C#Cc3ccc4[nH]c([C@@H]5CCCN5C(=O)[C@@H](NC(=O)OC)[C@@H](C)OC)nc4c3)cc2)c[nH]1)[C@@H](C)OC [Example 473] | > 9.00 |
| COC(=O)N[C@H](C(=O)N1CCC[C@H]1c1nc(-c2ccc(C#Cc3ccc4[nH]c([C@@H]5C[C@@H](O)CN5C(=O)[C@@H](NC(=O)OC)C(C)C)nc4c3)cc2)c[nH]1)C(C)C [Example 517] | > 9.00 |
| COC(=O)N[C@H](C(=O)N1CCC[C@H]1c1nc2cc(-c3ccc4cc(-c5c[nH]c([C@@H]6CCCN6C(=O)[C@@H](NC(=O)OC)[C@@H](C)OC)n5)ccc4c3)ccc2[nH]1)C(C)C [Example 464] | > 9.00 |
| COC(=O)N[C@@H](C(=O)N1CCC[C@H]1c1nc(-c2ccc(C#Cc3ccc4[nH]c([C@@H]5CCCN5C(=O)[C@H](NC(=O)OC)c5ccccc5)nc4c3)cc2)n[nH]1)c1ccccc1 [Example 442] | > 9.00 |
| COC(=O)N[C@@H](C(=O)N1CCC[C@H]1c1cc(-c2ccc(C#Cc3ccc4[nH]c([C@@H]5CCCN5C(=O)[C@H](NC(=O)OC)c5ccccc5)nc4c3)cc2)n[nH]1)c1ccccc1 [Example 445] | > 9.00 |
| COC(=O)N[C@H](C(=O)N1CCC[C@H]1c1nc(-c2ccc3cc(-c4ccc5[nH]c([C@@H]6CCCN6C(=O)[C@@H](NC(=O)OC)C(C)C)nc5c4)ccc3c2)c[nH]1)C(C)C [Example 459] | > 9.00 |
| COC(=O)N[C@H](C(=O)N1CCC[C@H]1c1ncc(-c2ccc(C#Cc3ccc4nc([C@@H]5CC[C@H](C)N5C(=O)[C@@H](NC(=O)OC)C(C)C)[nH]c4c3)cc2)[nH]1)C(C)C [Example 542] | > 9.00 |

Same assay, conditions: Hepatitis C virus, Table 12, numeric values, read-out: 1b EC50

| SMILES | pEC50 |
| --- | --- |
| COC(=O)N[C@H](C(=O)N1CC2(CC2)C[C@H]1c1ncc(-c2ccc(C#Cc3ccc4nc([C@@H]5CC6(CC6)CN5C(=O)[C@H](NC(=O)OC)c5ccccc5)[nH]c4c3)cc2)[nH]1)C(C)C [Example 578] | 11.22 |
| COC(=O)N[C@H](C(=O)N1C[C@@](C)(F)C[C@H]1c1ncc(-c2ccc(C#Cc3ccc4nc([C@@H]5C[C@@]6(CCCO6)CN5C(=O)[C@@H](NC(=O)OC)C(C)C)[nH]c4c3)cc2)[nH]1)C(C)C [Example 636] | 10.70 |
| COC(=O)N[C@H](C(=O)N1C[C@@H](C)C[C@H]1c1ncc(-c2ccc(C#Cc3ccc4nc([C@@H]5C[C@@]6(CCCO6)CN5C(=O)[C@@H](NC(=O)OC)C(C)C)[nH]c4c3)cc2)[nH]1)C(C)C [Example 559] | 10.85 |
| COC(=O)N[C@H](C(=O)N1CC2(CC2)C[C@H]1c1nc2cc(C#Cc3ccc(-c4cn(O)c([C@@H]5CC6(CC6)CN5C(=O)[C@@H](NC(=O)OC)C(C)C)n4)cc3)ccc2[nH]1)C(C)C [Example 571] | 10.89 |
| COC(=O)N[C@H](C(=O)N1CCC[C@H]1c1ncc(-c2ccc(C#Cc3ccc4nc([C@@H]5C[C@@]6(CC=CCO6)CN5C(=O)[C@@H](NC(=O)OC)C(C)C)[nH]c4c3)cc2)[nH]1)C(C)C [Example 563] | 10.92 |
| COC(=O)N[C@H](C(=O)N1CC2(CC2)C[C@H]1c1nc(-c2ccc(C#Cc3ccc4[nH]c([C@@H]5CC6(CC6)CN5C(=O)[C@@H](NC(=O)OC)C(C)C)nc4c3)cc2)c[nH]1)C(C)C [Example 548] | 11.40 |
| COC(=O)N[C@H](C(=O)N1C[C@H](C)C[C@H]1c1ncc(-c2ccc(C#Cc3ccc4nc([C@@H]5C[C@@]6(CCCO6)CN5C(=O)[C@@H](NC(=O)OC)C(C)C)[nH]c4c3)cc2)[nH]1)C(C)C [Example 628] | 11.05 |

Same assay, conditions: Hepatitis C virus, Table 12, range class, read-out: 1b EC50 Range

| SMILES | pEC50 |
| --- | --- |
| COC(=O)N[C@H](C(=O)N1CC(C)(C)C[C@H]1c1ncc(-c2ccc(C#Cc3ccc4nc([C@@H]5C[C@@]6(CCCO6)CN5C(=O)[C@@H](NC(=O)OC)C(C)C)[nH]c4c3)cc2)[nH]1)C(C)C [Example 560] | > 9.00 |
